Assay results from publication PMC3331929 (Antiviral Research, 2012).
Where two headings read alike, the source gives them in different places.

Legend:
Format in all cases: biochemical
[1] = biological target: T1, WNV NS2B/NS3pro (West Nile virus, UniProt Q9Q6P4); details: read-out: IC50 (μM) a; tri-peptide substrate Boc-GKR-AMC, inhibitor 0–40 μM
[2] = biological target: T1, WNV NS2B/NS3pro; details: read-out: IC50 (μM) b; tetra-peptide substrate Bz-Nle-KRR-AMC
[3] = biological target: T1, WNV NS2B/NS3pro; assay: In vitro protease assay, percent inhibition at a fixed inhibitor concentration; details: aprotinin as positive control, final concentration 2–10 μM

T1 sequence (Q9Q6P4 1506-1683): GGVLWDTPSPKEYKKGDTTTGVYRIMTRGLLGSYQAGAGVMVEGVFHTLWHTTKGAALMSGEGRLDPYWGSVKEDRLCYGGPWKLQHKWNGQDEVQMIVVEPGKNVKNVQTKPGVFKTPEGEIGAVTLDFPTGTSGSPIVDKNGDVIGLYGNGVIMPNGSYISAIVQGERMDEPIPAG
T1 sequence (Q9Q6P4 1428-1467): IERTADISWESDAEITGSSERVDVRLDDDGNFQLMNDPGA

Compound	IC50 [1] [µM]	IC50 [2] [µM]	inhibition of WNV NS2B-NS3pro, positive control [3] [%]
Oc1c(C(Nc2nccs2)c2ccccc2)ccc2cccnc12 (stereo not drawn) [compound 23]	9.85 ± 0.34	12.9 ± 0.54	–
aprotinin	–	–	100
